{
  "source": "paper PMC11969009",
  "about": "(Nature Communications, 2025)",
  "key": {"SARS-CoV-2 P21": {"system": "SARS-CoV-2 P21", "design": "species or system C57BL/6 (WT) mice", "conditions": "mouse, in vivo"}, "[1]": {"system": "SARS-CoV-2 clinical isolate VIC001", "assay": "microbe, parasite or virus in culture", "format": "cell-based"}, "229E PL2pro": {"biological_target": "229E PL2pro (Human coronavirus 229E, UniProt P0C6X1)", "sequence (P0C6X1 1599-1905 limits assumed)": "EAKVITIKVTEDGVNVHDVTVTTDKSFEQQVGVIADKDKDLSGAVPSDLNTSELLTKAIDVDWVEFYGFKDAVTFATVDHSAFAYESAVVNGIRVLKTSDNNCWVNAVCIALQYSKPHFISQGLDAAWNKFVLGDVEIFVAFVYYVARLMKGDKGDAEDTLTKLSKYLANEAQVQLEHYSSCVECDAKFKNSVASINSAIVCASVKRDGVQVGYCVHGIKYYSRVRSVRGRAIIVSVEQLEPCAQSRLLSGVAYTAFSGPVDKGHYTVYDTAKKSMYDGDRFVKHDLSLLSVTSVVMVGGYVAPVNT", "assay": "biochemical", "design": "inhibition of 229E PL2pro, UbRh dose-response replicate value: unit: %"}, "SARS-CoV PLpro": {"biological_target": "SARS-CoV PLpro (Severe acute respiratory syndrome coronavirus, UniProt P0C6X7)", "assay": "biochemical", "design": "inhibition of SARS-CoV PLpro, UbRh dose-response replicate value: unit: %"}, "NL63 PL2pro": {"biological_target": "NL63 PL2pro (Human coronavirus NL63, UniProt P0C6X5)", "sequence (P0C6X5 1578-1876 limits assumed)": "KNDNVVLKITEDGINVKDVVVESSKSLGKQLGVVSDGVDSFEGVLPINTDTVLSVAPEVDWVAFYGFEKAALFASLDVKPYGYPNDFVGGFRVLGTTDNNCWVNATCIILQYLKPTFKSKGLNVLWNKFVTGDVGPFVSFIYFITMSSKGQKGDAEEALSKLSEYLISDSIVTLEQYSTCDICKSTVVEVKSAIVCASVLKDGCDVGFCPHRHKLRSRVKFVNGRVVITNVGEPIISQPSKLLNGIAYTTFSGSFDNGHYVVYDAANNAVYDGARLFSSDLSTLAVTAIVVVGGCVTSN", "assay": "biochemical", "design": "inhibition of NL63 PL2pro, UbRh dose-response replicate value: unit: %"}, "HKU1 PLpro": {"biological_target": "HKU1 PLpro (Human coronavirus HKU1, UniProt P0C6X2)", "sequence (P0C6X2 1648-1958 limits assumed)": "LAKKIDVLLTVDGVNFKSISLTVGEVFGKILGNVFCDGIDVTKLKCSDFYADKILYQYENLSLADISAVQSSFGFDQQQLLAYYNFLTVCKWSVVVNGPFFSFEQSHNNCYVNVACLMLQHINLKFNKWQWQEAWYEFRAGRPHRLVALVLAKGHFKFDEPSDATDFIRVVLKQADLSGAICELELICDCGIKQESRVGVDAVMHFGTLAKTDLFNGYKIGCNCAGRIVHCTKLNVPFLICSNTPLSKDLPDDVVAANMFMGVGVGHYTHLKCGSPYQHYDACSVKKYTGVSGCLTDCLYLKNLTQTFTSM", "assay": "biochemical", "format": "biochemical", "design": "inhibition of HKU1 PLpro, UbRh dose-response replicate value: unit: %"}, "SARS-CoV-2 PLpro": {"biological_target": "SARS-CoV-2 PLpro (Severe acute respiratory syndrome coronavirus 2, UniProt P0DTD1)", "assay": "biochemical"}, "USP21": {"biological_target": "USP21 (Homo sapiens, UniProt Q9UK80)", "sequence (Q9UK80 whole entry)": "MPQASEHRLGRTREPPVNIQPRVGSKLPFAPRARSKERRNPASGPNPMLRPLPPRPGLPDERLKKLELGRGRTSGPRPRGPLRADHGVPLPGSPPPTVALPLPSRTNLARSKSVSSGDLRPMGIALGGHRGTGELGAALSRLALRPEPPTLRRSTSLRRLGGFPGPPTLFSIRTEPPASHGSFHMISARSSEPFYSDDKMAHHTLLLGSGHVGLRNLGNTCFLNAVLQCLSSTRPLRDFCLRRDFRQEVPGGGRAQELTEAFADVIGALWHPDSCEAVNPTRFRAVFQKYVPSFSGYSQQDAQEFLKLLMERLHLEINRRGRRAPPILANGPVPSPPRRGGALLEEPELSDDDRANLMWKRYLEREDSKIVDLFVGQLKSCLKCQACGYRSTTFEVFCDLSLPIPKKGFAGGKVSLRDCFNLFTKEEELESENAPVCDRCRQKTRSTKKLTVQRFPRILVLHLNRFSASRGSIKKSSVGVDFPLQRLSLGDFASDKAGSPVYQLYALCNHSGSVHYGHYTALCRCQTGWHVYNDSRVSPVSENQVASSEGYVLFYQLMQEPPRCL", "format": "biochemical"}, "MERS-CoV PLpro": {"biological_target": "MERS-CoV PLpro (Middle East respiratory syndrome-related coronavirus, UniProt K9N7C7)", "sequence (K9N7C7 1482-1803 limits assumed)": "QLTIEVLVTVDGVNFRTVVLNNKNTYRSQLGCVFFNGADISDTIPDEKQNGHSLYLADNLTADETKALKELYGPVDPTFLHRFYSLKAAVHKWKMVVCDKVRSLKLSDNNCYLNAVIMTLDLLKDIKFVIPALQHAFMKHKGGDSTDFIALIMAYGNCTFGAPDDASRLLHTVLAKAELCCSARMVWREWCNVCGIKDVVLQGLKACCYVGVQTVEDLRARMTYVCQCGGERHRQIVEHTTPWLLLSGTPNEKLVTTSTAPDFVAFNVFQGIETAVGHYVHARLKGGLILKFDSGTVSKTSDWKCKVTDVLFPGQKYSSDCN", "format": "biochemical", "design": "unit: %"}, "OC43 PLpro": {"biological_target": "OC43 PLpro (Human coronavirus OC43, UniProt P0C6X6)", "sequence (P0C6X6 1561-1872 limits assumed)": "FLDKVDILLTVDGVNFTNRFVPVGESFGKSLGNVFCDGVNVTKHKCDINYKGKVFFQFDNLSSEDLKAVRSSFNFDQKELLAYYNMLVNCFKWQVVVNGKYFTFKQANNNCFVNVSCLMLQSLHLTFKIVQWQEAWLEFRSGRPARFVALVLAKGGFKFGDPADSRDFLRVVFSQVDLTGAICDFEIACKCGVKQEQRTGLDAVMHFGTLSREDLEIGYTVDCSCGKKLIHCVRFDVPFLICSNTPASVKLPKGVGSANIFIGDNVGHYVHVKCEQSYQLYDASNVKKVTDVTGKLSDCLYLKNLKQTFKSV", "format": "biochemical", "design": "unit not given here"}},
  "note": "Values joined by “and” are separate entries in the source; they are usually repeats but may differ in a detail not shown here. Equal values may be shown once. Read-outs that look alike come from different tables or passages of the source.",
  "data": [
    {"smiles": "CCO/N=C(/c1ccc2cc(OC)ccc2c1)[C@@H]1CCCN([C@H]2CC[C@@H](O)CC2)C1", "note": "[P8-100]", "values": [
      {"measurement": "Log2 Fold change IL-4", "setting": "SARS-CoV-2 P21", "result": -0.18},
      {"measurement": "Log2 Fold change IL-9", "setting": "SARS-CoV-2 P21", "result": -6.78}
    ]},
    {"smiles": "CCO/N=C(/c1ccc2cc(OC)ccc2c1)[C@@H]1CCCN([C@H]2CC[C@@H](O)CC2)C1", "note": "[P8-150]", "values": [
      {"measurement": "Log2 Fold change IL-12p70", "setting": "SARS-CoV-2 P21", "result": -2.36}
    ]},
    {"smiles": "CO/N=C(/c1ccc2cc(OC)ccc2c1)[C@@H]1CCCN([C@H]2CC[C@@H](O)CC2)C1", "note": "[WEHI P4]", "values": [
      {"measurement": "Ext Data Fig 2f dose response (0 µM = 100)", "setting": "[1]; concentration 0.01 µM", "result": "109.2308 and 92.5900 and 114.0845 and 104.0541 and 89.7436"},
      {"measurement": "Ext Data Fig 2f dose response (0 µM = 100)", "setting": "[1]; concentration 0.02 µM", "result": "101.5385 and 95.0600 and 95.7746 and 97.2973 and 106.4103"},
      {"measurement": "Ext Data Fig 2f dose response (0 µM = 100)", "setting": "[1]; concentration 0.04 µM", "result": "107.6923 and 74.0700 and 95.7746 and 91.8919 and 82.0513"},
      {"measurement": "Ext Data Fig 2f dose response (0 µM = 100)", "setting": "[1]; concentration 0.08 µM", "result": "93.8462 and 80.2500 and 109.8592 and 101.3514 and 93.5897"},
      {"measurement": "Ext Data Fig 2f dose response (0 µM = 100)", "setting": "[1]; concentration 5 µM", "result": 0.0000}
    ]},
    {"smiles": "CO/N=C(/c1ccc2cc(OC)ccc2c1)[C@@H]1CCCN([C@H]2CC[C@@H](c3cc[nH]n3)CC2)C1", "note": "[WEHI-P70]", "values": [
      {"measurement": "IC50", "setting": "229E PL2pro", "result": 26, "unit": "µM"},
      {"measurement": "inhibition of 229E PL2pro, UbRh dose-response replicate value", "setting": "229E PL2pro", "result": "46.2136 and 48.684 and 48.4508 and 18.0648 and 22.1853 and 20.9697"},
      {"measurement": "inhibition of 229E PL2pro, UbRh dose-response replicate value", "setting": "229E PL2pro; Conc 98 µM", "result": "70.621 and 72.3972 and 73.3316"},
      {"measurement": "inhibition at […]", "setting": "229E PL2pro; read-out: inhibition of 229E PL2pro, UbRh dose-response replicate value", "result": "44.4% and 18.9%"},
      {"measurement": "inhibition at 98 µM", "setting": "229E PL2pro; read-out: inhibition of 229E PL2pro, UbRh dose-response replicate value, Conc 98 µM", "result": 71.9, "unit": "%"},
      {"measurement": "IC50", "setting": "SARS-CoV PLpro", "result": 0.094, "unit": "µM"},
      {"measurement": "inhibition of SARS-CoV PLpro, UbRh dose-response replicate value", "setting": "SARS-CoV PLpro", "result": "98.7016 and 99.911 and 99.674 and 98.9699 and 100.405 and 100.228"},
      {"measurement": "SARS-CoV PLpro, UbRh hCoV Pan Activity dose-response", "setting": "SARS-CoV PLpro; Conc 0.0149 µM", "result": "11.412 and 10.2397 and 10.016 and 11.8574"},
      {"measurement": "SARS-CoV PLpro, UbRh hCoV Pan Activity dose-response", "setting": "SARS-CoV PLpro; Conc 0.0448 µM", "result": "31.6247 and 32.2323 and 27.9576 and 29.7371"},
      {"measurement": "SARS-CoV PLpro, UbRh hCoV Pan Activity dose-response", "setting": "SARS-CoV PLpro; Conc 3.63 µM", "result": "97.8161 and 97.4695 and 97.9055 and 98.3366"},
      {"measurement": "inhibition of SARS-CoV PLpro, UbRh dose-response replicate value", "setting": "SARS-CoV PLpro; Conc 98 µM", "result": "99.4348 and 99.7657 and 100.125"},
      {"measurement": "inhibition at 98 µM", "setting": "SARS-CoV PLpro; Conc 98 µM, read-out: inhibition of SARS-CoV PLpro, UbRh dose-response replicate value", "result": 98.6, "unit": "%"},
      {"measurement": "inhibition at […]", "setting": "SARS-CoV PLpro; read-out: inhibition of SARS-CoV PLpro, UbRh dose-response replicate value", "result": 99.4, "unit": "%"},
      {"measurement": "IC50", "setting": "NL63 PL2pro", "result": 0.648, "unit": "µM"},
      {"measurement": "inhibition of NL63 PL2pro, UbRh dose-response replicate value", "setting": "NL63 PL2pro", "result": "96.5311 and 98.0786 and 97.1472 and 94.6147 and 95.7019 and 95.1407"},
      {"measurement": "NL63 PL2pro, UbRh hCoV Pan Activity dose-response", "setting": "NL63 PL2pro; Conc 3.63 µM", "result": "86.4411 and 86.623 and 87.2454 and 84.6973"},
      {"measurement": "inhibition of NL63 PL2pro, UbRh dose-response replicate value", "setting": "NL63 PL2pro; Conc 98 µM", "result": "98.2213 and 99.4112 and 98.0123"},
      {"measurement": "inhibition at 98 µM", "setting": "NL63 PL2pro; Conc 98 µM, read-out: inhibition of NL63 PL2pro, UbRh dose-response replicate value", "result": 98.4, "unit": "%"},
      {"measurement": "inhibition at […]", "setting": "NL63 PL2pro; read-out: inhibition of NL63 PL2pro, UbRh dose-response replicate value", "result": "97.7% and 95.1%"},
      {"measurement": "inhibition of HKU1 PLpro, UbRh dose-response replicate value", "setting": "HKU1 PLpro", "result": "-6.039 and -6.635 and 8.689 and -11.8697 and -9.542 and -8.165 and -7.3684 and -16.402"},
      {"measurement": "inhibition of HKU1 PLpro, UbRh dose-response replicate value", "setting": "HKU1 PLpro; Conc 98 µM", "result": "-3.115 and -4.878 and -6.077 and -8.873"},
      {"measurement": "inhibition at 0.545 µM", "setting": "SARS-CoV-2 PLpro; Conc 0.545 µM, read-out: SARS-CoV-2 PLpro, UbRh dose-response", "result": 87.3, "unit": "%"},
      {"measurement": "inhibition at 1.63 µM", "setting": "SARS-CoV-2 PLpro; Conc 1.63 µM, read-out: SARS-CoV-2 PLpro, UbRh dose-response", "result": 96.4, "unit": "%"},
      {"measurement": "inhibition at 4.9 µM", "setting": "SARS-CoV-2 PLpro; Conc 4.9 µM, read-out: SARS-CoV-2 PLpro, UbRh dose-response", "result": 102, "unit": "%"},
      {"measurement": "IC50", "setting": "SARS-CoV-2 PLpro; IC50 (UbRh) SARS-CoV-2 PLpro", "result": 0.098, "unit": "µM"},
      {"measurement": "inhibition at […]", "setting": "SARS-CoV-2 PLpro; read-out: SARS-CoV-2 PLpro, UbRh dose-response", "result": "65.3% and 28.1%"},
      {"measurement": "selectivity over USP21", "setting": "USP21", "result": "selective over USP21"},
      {"measurement": "inhibition of MERS-CoV PLpro, UbRh dose-response replicate value", "setting": "MERS-CoV PLpro", "result": "-8.262 and -6.812 and -8.29 and -8.637 and -10.7207 and -11.1211 and -8.564 and -8.857"},
      {"measurement": "inhibition of MERS-CoV PLpro, UbRh dose-response replicate value", "setting": "MERS-CoV PLpro; Conc 98 µM", "result": "-10.7242 and -11.7377 and -6.2046 and -4.979"},
      {"measurement": "inhibition of OC43 PLpro, UbRh dose-response replicate value", "setting": "OC43 PLpro", "result": "-10.4521 and -4.6612 and -0.2116 and -6.41 and -12.4786 and -1.279 and -4.6859"},
      {"measurement": "inhibition of OC43 PLpro, UbRh dose-response replicate value", "setting": "OC43 PLpro; Conc 98 µM", "result": "-8.82 and -6.432 and -0.556 and -3.797"}
    ]}
  ]
}
